Measured values reported in the RepoRT retention time repository (doi:10.1016/j.jpba.2019.06.042).

Test: Agilent ZORBAX Eclipse Plus C18, 150 × 2.1 mm, 3.5 µm, 0.2 mL/min, estimated dead time 1.7 min; A: water + 0.1% formic acid; B: acetonitrile; gradient (min/%B) 0/10 20/54 23/100 32/100
Details: stereoisomer not certain

| LC retention time [min] | SMILES |
| --- | --- |
| 20.1 | Cc1c(O)c(CC2=C(O)C(C)(C)C(=O)C(C(=O)C(C)C)=C2O)c(O)c(C(=O)C(C)C)c1O |
| 14.9 | O=c1cc(-c2ccc(O)c(-c3c(O)cc(O)c4c(=O)cc(-c5ccc(O)cc5)oc34)c2)oc2cc(O)cc(O)c12 |
| 28.8 | CC(C)=CCc1c(O)cc(O)c2c(=O)c3ccc(O)c(O)c3oc12 |
| 12.2 | COc1c(-c2ccc(O)c(O)c2)oc2cc(O)cc(O)c2c1=O |
| 3.1 | O=C(O)C1(O)CC(O)C(O)C(O)C1 (stereo not given) |
| 29 | CC1(C)C=Cc2c(cc(O)c3c(=O)c4cccc(O)c4oc23)O1 |
| 15.9 | COc1cc2oc(-c3ccccc3)c(OC)c(=O)c2c(OC)c1OC |
| 14 | O=C1c2c(O)cc(O)cc2OC(c2ccc(O)cc2)C1O (stereo not given) |
| 5.2 | O=C(C=Cc1ccc(O)c(O)c1)OC1CC(O)(C(=O)O)CC(O)C1O (stereo not given) |
| 13.6 | O=c1c(-c2c(O)cc(O)c3c(=O)cc(-c4ccc(O)cc4)oc23)c(-c2ccc(O)cc2)oc2cc(O)cc(O)c12 |
| 11.6 | O=C1c2c(O)cc(O)cc2OC(c2ccc(O)c(O)c2)C1O (stereo not given) |
| 26 | COc1ccc2ccc(=O)oc2c1CC=C(C)C |
| 31.6 | C=C(C)C1CC=C2C(O)CC(O)C(C)C2(C)C1 (stereo not given) |
| 15.4 | CCC(C)C(=O)c1c(O)c(C)c(OCC=C(C)CCC=C(C)C)c(C(C)=O)c1O (stereo not given) |
| 6.6 | O=C(C=Cc1ccc(O)c(O)c1)OC1C(O)CC(O)(C(=O)O)CC1O (stereo not given) |
| 9.7 | CC1OC(OCC2OC(Oc3c(-c4ccc(O)c(O)c4)oc4cc(O)cc(O)c4c3=O)C(O)C(O)C2O)C(O)C(O)C1O (stereo not given) |
| 10.6 | O=c1c(O)c(-c2ccc(O)c(O)c2)oc2cc(O)cc(O)c12 |
| 25.7 | COc1ccc2c(=O)c3cccc(O)c3oc2c1 |

| LC retention time [min] | SMILES |
| --- | --- |
| 9.9 | CC1OC(Oc2c(-c3ccc(O)c(O)c3)oc3cc(O)cc(O)c3c2=O)C(O)C(O)C1O (stereo not given) |
| 10.3 | CC1=CC(=O)CC(C)(C)C1(O)C=CC(C)OC1OC(CO)C(O)C(O)C1O (stereo not given) |
| 10.2 | CC1OC(Oc2cc(O)c3c(=O)c(O)c(-c4ccc(O)cc4)oc3c2)C(O)C(O)C1O (stereo not given) |
| 8.8 | O=c1c(OC2OC(CO)C(O)C(O)C2O)c(-c2ccc(O)c(O)c2)oc2cc(O)cc(O)c12 (stereo not given) |
| 9.3 | O=C(O)C1OC(Oc2c(-c3ccc(O)c(O)c3)oc3cc(O)cc(O)c3c2=O)C(O)C(O)C1O (stereo not given) |
| 15.2 | COc1cc(C=CC(=O)O)cc(OC)c1O |
| 15 | O=C1CC(c2ccc(O)cc2)Oc2cc(O)cc(O)c21 (stereo not given) |
| 13.5 | O=c1c(O)c(-c2ccc(O)cc2)oc2cc(O)cc(O)c12 |
| 12.5 | COc1cc(O)c2c(=O)c(O)c(-c3ccc(O)cc3)oc2c1 |
| 23.6 | CC(C)(OC1OC(CO)C(O)C(O)C1O)C1CCC(CO)(C(O)CO)O1 (stereo not given) |
| 26.9 | O=c1c2cccc(O)c2oc2cc(O)cc(O)c12 |
| 18.4 | CCC(C)C(=O)c1c(O)c(C)c(O)c(CC2=C(O)C(C)(C)C(=O)C(C(=O)C(C)C)=C2O)c1O (stereo not given) |
| 20.5 | O=c1ccc2ccc(O)cc2o1 |
| 18.3 | CC(C)=CCCC(C)=CCc1c(O)c(CC2=C(O)C(C)(C)C(=O)C(C(=O)C(C)C)=C2O)c(O)c(C(=O)C(C)C)c1O |
| 22.7 | COc1ccc2ccc(=O)oc2c1 |
| 20.4 | CC(C)=CCC1CC2(CC=C(C)C)C(=O)C(=C(O)c3ccccc3)C(=O)C(CC=C(C)C)(C2=O)C1(C)C (stereo not given) |
| 15.6 | CC1(C)C=Cc2c(cc(O)c3c(=O)c4ccc(O)c(O)c4oc23)O1 |
